ChEMBL document CHEMBL4376834, “Discovery of 4H-Chromen-4-one Derivatives as a New Class of Selective Rho Kinase (ROCK) Inhibitors, which Showed Potent Activity in ex Vivo Diabetic Retinopathy Models” (J Med Chem, 2019)

Tests used:
[1] = molecular target: MAP kinase-activated protein kinase 3 (Homo sapiens, UniProt Q16644); test: Inhibition of recombinant human MAPKAPK3 (2 to end residues) using KKLNRTLSVA as substrate incubated for 40 mins in presence of [gamma-33ATP by radiometric scintillation counting analysis
[2] = molecular target: CDC7/Cyclin B1 (Homo sapiens, UniProt O00311+P14635); test: Inhibition of recombinant full length human CDC7/CyclinB1 using Histone H1 as substrate incubated for 120 mins in presence of [gamma-33ATP] by radiometric scintillation counting analysis; assay type: protein-complex assay
[3] = molecular target: Mitogen-activated protein kinase kinase kinase 2 (Homo sapiens, UniProt Q9Y2U5); test: Inhibition of recombinant full length human MEKK2 using myelin basic protein as substrate incubated for 40 mins in presence of [gamma-33ATP by radiometric scintillation counting analysis
[4] = molecular target: Hepatocyte growth factor receptor (Homo sapiens, UniProt P08581, D1228N); test: Inhibition of recombinant human MET A1209G/V1290L/D1246N triple mutant (974 to end residues) using KKKGQEEEYVFIE as substrate incubated for 40 mins in presence of [gamma-33ATP by radiometric scintillation counting analysis
[5] = molecular target: Calcium/calmodulin-dependent protein kinase kinase 1 (Homo sapiens, UniProt Q8N5S9); test: Inhibition of recombinant full length human CaMKK1 using calmodulin as substrate incubated for 40 mins in presence of [gamma-33ATP] by radiometric scintillation counting analysis
[6] = molecular target: Serine/threonine-protein kinase TAO1 (Homo sapiens, UniProt Q7L7X3); test: Inhibition of recombinant human TAO1 (1 to 327 residues) using myelin basic protein as substrate incubated for 40 mins in presence of [gamma33P]ATP by radiometric scintillation counting analysis
[7] = molecular target: Mast/stem cell growth factor receptor Kit (Homo sapiens, UniProt P10721, D816V); test: Inhibition of recombinant human C-Kit D816V mutant (544 to end residues) using poly(Glu, Tyr) 4:1 as substrate incubated 40 mins in presence of [gamma-33ATP] by radiometric scintillation counting analysis
[8] = molecular target: Serine/threonine-protein kinase STK11 (Homo sapiens, UniProt Q15831); test: Inhibition of recombinant full length human LKB1 using LSNLYHQGKFLQT as substrate after 40 mins in presence of [gamma-33ATP] by radiometric scintillation counting analysis
[9] = molecular target: Serine/threonine-protein kinase 38-like (Homo sapiens, UniProt Q9Y2H1); test: Inhibition of recombinant human NDR2 (83 to end residues) using RSRSRSRSRSRSRSR as substrate measured after 40 mins in presence of [gamma33P]ATP by radiometric scintillation counting analysis
[10] = molecular target: Bone morphogenetic protein receptor type-1B (Homo sapiens, UniProt O00238); test: Inhibition of human recombinant ALK6 (148 to end residues) using casein as substrate incubated for 40 mins in presence of [gamma-33P]ATP by radiometric scintillation counting analysis
[11] = molecular target: Ephrin type-A receptor 4 (Homo sapiens, UniProt P54764); test: Inhibition of recombinant human EphA4 (601 to 892 residues) using poly(Glu, Tyr) 4:1 as substrate measured after 40 mins in presence of [gamma33ATP] by radiometric scintillation counting analysis
[12] = molecular target: Calcium/calmodulin-dependent protein kinase type II subunit beta (Homo sapiens, UniProt Q13554); test: Inhibition of recombinant human CaMK2beta (1 to 315 residues) using calmodulin a substrate incubated for 40 mins in presence of [gamma-33ATP] by radiometric scintillation counting analysis
[13] = Inhibition of recombinant human MER H628Q/R794A double mutant (557 to 882 residues) using KKLNRTLSFAEPG as substrate incubated for 40 mins in presence of [gamma-33ATP by radiometric scintillation counting analysis
[14] = molecular target: Tyrosine-protein kinase ITK/TSK (Homo sapiens, UniProt Q08881); test: Inhibition of human recombinant Itk (352 to 617 residues) using myelin basic protein as substrate after 40 mins by [gamma-33ATP] by radiometric scintillation counting analysis
[15] = molecular target: Serine/threonine-protein kinase/endoribonuclease IRE1 (Homo sapiens, UniProt O75460); test: Inhibition of human recombinant IRE1 (465 to end residues) using myelin basic protein as substrate after 40 mins by [gamma-33ATP] by radiometric scintillation counting analysis
[16] = molecular target: Mitogen-activated protein kinase kinase kinase 20 (Homo sapiens, UniProt Q9NYL2); test: Inhibition of recombinant full-length human ZAK using MBP as substrate incubated for 40 mins in presence of [gamma33P]ATP by radiometric scintillation counting analysis
[17] = molecular target: Serine/threonine-protein kinase PAK 4 (Homo sapiens, UniProt O96013); test: Inhibition of recombinant human PAK4 (295 to end residues) using myelin basic protein as substrate measured after 40 mins in presence of [gamma33P]ATP by radiometric scintillation counting analysis
[18] = molecular target: Tyrosine-protein kinase HCK (Homo sapiens, UniProt P08631); test: Inhibition of human recombinant activated HCK (230 to 497 residues) using GGMEDIYFEFMGG as substrate after 40 mins by [gamma-33ATP] radiometric assay
[19] = molecular target: NUAK family SNF1-like kinase 1 (Homo sapiens, UniProt O60285); test: Inhibition of human recombinant ARK5 (2 to end residues) using KKKVSRSGLYRSP as substrate incubated for 40 mins in presence of [gamma-33ATP] by radiometric scintillation counting analysis
[20] = molecular target: Fibroblast growth factor receptor 1 (Homo sapiens, UniProt P11362); test: Inhibition of recombinant human FGFR1 (456 to 765 residues) using KKKSPGEYVNIEF as substrate after 40 mins in presence of [gamma-33ATP] by radiometric scintillation counting analysis
[21] = molecular target: Homeodomain-interacting protein kinase 1 (Homo sapiens, UniProt Q86Z02); test: Inhibition of human recombinant HIPK1 (158 to 555 residues) using myelin basic protein as substrate after 40 mins by [gamma-33ATP] radiometric assay
[22] = molecular target: Calcium/calmodulin-dependent protein kinase type II subunit delta (Homo sapiens, UniProt Q13557); test: Inhibition of recombinant full length human CaMK2delta using calmodulin as substrate incubated for 40 mins in presence of [gamma-33ATP] by radiometric scintillation counting analysis
[23] = molecular target: Serine/threonine-protein kinase tousled-like 1 (Homo sapiens, UniProt Q9UKI8); test: Inhibition of recombinant full-length human TLK1 using casein as substrate incubated for 40 mins in presence of [gamma33P]ATP by radiometric scintillation counting analysis
[24] = molecular target: eIF-2-alpha kinase GCN2 (Homo sapiens, UniProt Q9P2K8, E556G); test: Inhibition of recombinant full length human GCN2 E556G mutant using RSRSRSRSRSRSR as substrate after 40 mins in presence of [gamma-33ATP] by radiometric scintillation counting analysis
[25] = molecular target: RAC-beta serine/threonine-protein kinase (Homo sapiens, UniProt P31751, S474D); test: Inhibition of recombinant human PKBbeta S474D mutant (120 to end residues) using GRPRTSSFAEGKK as substrate incubated for 40 mins in presence of [gamma33P]ATP by radiometric scintillation counting analysis

Measured: IC50

Sequence of Serine/threonine-protein kinase/endoribonuclease IRE1 (O75460 whole entry): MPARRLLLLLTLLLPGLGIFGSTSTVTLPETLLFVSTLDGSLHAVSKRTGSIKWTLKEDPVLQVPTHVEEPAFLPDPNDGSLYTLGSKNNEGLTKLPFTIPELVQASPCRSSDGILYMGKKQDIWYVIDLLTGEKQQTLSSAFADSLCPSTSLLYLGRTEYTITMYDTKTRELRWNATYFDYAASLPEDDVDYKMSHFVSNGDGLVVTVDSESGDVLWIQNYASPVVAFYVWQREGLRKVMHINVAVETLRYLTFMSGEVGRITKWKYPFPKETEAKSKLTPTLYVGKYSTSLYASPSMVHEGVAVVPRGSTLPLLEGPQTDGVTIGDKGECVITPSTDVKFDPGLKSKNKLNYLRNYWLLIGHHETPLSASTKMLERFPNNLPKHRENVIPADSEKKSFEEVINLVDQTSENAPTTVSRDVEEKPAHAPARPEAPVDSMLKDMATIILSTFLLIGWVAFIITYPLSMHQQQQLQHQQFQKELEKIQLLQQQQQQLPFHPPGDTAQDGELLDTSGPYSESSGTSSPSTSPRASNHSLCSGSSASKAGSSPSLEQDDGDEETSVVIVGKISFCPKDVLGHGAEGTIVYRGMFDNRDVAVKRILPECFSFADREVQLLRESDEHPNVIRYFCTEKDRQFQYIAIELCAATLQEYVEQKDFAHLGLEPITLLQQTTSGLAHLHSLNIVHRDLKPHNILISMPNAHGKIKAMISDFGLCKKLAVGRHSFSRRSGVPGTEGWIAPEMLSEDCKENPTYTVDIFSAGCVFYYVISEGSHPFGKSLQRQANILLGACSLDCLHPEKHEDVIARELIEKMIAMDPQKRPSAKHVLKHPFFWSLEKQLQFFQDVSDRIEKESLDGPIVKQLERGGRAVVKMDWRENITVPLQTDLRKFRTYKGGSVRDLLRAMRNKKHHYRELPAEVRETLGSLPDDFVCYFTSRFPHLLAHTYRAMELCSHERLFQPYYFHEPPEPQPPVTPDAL
Sequence of Calcium/calmodulin-dependent protein kinase type II subunit delta (Q13557 whole entry): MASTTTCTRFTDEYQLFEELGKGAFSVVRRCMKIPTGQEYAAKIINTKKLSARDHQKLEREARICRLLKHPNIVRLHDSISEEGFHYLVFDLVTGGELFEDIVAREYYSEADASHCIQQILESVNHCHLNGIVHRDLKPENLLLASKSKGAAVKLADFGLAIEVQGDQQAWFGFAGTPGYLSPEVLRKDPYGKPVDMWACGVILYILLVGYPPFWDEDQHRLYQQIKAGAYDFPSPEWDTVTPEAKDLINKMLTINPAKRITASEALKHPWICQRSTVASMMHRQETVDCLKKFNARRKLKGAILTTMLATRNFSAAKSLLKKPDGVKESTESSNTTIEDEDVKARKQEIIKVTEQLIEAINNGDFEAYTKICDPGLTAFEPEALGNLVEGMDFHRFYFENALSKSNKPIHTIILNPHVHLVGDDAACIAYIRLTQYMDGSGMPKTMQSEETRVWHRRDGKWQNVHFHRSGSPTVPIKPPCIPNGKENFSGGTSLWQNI
Sequence of Serine/threonine-protein kinase tousled-like 1 (Q9UKI8 whole entry): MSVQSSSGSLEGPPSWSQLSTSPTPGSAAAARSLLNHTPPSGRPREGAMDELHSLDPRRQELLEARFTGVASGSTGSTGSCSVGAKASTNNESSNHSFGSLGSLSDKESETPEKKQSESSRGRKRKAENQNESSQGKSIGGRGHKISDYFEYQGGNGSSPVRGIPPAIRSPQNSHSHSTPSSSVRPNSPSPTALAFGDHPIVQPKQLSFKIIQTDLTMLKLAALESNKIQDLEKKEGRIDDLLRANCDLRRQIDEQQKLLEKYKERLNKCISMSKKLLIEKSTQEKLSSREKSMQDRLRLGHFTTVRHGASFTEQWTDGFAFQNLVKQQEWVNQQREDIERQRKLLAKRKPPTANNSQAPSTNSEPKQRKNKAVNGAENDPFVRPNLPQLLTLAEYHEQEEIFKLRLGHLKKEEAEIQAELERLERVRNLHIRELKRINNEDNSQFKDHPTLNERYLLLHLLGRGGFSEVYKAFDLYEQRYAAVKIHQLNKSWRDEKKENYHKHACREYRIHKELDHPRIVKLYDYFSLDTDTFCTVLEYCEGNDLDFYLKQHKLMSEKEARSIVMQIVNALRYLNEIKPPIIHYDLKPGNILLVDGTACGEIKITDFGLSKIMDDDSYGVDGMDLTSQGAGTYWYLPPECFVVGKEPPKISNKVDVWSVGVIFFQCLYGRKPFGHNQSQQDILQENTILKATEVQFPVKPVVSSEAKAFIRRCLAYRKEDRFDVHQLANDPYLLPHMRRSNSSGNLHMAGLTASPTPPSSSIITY
Sequence of Mast/stem cell growth factor receptor Kit (P10721 26-976 D816V limits assumed): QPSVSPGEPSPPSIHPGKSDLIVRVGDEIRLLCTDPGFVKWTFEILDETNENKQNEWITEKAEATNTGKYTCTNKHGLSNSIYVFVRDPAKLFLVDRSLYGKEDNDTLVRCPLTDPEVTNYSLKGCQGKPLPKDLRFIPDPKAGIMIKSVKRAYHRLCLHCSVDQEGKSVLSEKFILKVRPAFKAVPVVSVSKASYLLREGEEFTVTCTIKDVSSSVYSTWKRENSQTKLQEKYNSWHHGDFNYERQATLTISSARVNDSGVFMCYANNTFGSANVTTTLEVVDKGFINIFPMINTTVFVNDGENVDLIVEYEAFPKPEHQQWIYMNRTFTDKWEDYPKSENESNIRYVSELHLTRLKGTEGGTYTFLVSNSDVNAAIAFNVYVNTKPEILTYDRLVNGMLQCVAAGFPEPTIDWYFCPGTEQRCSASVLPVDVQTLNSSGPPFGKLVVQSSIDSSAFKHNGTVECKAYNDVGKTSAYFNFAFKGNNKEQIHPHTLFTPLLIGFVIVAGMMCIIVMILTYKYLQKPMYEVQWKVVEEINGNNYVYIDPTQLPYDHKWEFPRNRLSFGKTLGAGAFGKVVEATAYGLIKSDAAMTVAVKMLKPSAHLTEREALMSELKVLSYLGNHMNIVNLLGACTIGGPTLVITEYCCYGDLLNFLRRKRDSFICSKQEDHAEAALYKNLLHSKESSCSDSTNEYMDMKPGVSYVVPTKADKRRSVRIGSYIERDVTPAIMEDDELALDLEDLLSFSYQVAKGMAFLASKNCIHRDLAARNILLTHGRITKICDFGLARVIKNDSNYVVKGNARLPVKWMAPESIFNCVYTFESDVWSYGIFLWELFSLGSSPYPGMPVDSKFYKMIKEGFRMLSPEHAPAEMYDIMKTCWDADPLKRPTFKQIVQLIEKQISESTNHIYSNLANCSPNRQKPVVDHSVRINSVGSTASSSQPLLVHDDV
Sequence of MAP kinase-activated protein kinase 3 (Q16644 whole entry): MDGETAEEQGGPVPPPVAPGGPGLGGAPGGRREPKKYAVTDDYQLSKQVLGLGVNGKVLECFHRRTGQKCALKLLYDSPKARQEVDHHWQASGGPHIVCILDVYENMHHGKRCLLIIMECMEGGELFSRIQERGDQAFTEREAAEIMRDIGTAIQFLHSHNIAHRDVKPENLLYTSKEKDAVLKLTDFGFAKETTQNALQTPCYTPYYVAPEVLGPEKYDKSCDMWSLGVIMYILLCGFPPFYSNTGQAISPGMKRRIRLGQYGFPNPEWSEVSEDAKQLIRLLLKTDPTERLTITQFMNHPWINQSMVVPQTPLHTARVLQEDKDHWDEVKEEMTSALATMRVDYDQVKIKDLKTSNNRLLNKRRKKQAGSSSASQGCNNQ
Sequence of Homeodomain-interacting protein kinase 1 (Q86Z02 whole entry, the tested form may be a part): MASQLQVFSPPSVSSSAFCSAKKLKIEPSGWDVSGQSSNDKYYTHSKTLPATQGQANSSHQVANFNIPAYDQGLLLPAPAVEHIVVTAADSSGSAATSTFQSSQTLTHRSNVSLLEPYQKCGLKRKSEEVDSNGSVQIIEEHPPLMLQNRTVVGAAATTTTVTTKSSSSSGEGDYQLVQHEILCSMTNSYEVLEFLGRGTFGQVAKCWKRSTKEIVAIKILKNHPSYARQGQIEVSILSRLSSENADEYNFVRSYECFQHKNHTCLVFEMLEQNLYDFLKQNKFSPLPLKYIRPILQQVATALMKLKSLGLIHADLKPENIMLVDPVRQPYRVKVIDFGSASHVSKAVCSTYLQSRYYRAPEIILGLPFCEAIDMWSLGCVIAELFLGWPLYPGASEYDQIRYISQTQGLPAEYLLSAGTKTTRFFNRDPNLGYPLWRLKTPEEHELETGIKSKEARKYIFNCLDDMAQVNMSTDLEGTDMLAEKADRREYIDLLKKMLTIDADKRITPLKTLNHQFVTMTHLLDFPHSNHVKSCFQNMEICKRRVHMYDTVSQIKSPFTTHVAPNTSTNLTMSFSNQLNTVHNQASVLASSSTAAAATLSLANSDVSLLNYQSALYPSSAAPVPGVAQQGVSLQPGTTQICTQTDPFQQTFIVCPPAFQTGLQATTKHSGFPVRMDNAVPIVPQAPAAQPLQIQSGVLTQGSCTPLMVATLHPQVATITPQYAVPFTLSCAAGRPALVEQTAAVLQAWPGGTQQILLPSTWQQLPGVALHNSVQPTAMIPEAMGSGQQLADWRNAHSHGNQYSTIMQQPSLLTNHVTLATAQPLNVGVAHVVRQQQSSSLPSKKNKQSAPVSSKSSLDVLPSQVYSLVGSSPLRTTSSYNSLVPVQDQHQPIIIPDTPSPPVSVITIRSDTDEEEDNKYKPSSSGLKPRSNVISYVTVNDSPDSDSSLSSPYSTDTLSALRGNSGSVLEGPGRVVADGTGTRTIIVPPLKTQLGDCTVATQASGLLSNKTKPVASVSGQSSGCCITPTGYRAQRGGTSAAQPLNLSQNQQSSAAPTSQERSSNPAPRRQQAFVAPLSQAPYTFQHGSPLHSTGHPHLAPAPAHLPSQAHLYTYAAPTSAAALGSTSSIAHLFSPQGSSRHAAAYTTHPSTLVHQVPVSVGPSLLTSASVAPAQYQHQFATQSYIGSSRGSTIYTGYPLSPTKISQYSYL

CN(C)c1ccc(C(=O)Nc2cccc(NC(=O)COc3ccc4c(=O)ccoc4c3)c2)cc1
> 10 µM: all assays above
